In BindingDB's records for doi:10.7270/Q2TX3CTT (Broad Institute, 2010):

Target: Glycogen synthase kinase-3 beta (Homo sapiens, UniProt P49841)
Experiment: concentration-response blocking of human GSK3B – biochemical, luminescence, cell-free homogeneous, retest, dose response (AID 434954)

Glycogen synthase kinase-3 beta, sequence (P49841 whole entry): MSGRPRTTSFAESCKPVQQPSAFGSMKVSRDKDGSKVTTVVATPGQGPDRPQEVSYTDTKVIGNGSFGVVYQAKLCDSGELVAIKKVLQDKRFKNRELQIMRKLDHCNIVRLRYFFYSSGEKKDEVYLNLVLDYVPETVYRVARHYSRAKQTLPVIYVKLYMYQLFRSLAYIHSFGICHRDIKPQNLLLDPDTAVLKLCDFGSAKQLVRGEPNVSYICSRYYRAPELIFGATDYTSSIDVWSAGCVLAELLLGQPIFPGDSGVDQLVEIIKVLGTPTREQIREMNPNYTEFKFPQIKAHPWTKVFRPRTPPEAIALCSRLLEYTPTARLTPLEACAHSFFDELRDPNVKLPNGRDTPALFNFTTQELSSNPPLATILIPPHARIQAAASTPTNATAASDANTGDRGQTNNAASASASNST

| SMILES | EC50 [µM] |
| --- | --- |
| O=C1/C(=C\c2ccc(O)cc2)SC(=S)N1Cc1ccccc1 [(5E)-5-[(4-hydroxyphenyl)methylidene]-3-(phenylmethyl)-2-sulfanylidene-1,3-thiazolidin-4-one] | > 300 |
| CCOC(=O)c1c(-c2ccc(C)o2)csc1N | > 300 |
| CC(C)OCCCNC(=O)c1ccc(CS(=O)(=O)Cc2ccccc2F)o1 [5-[(2-fluorophenyl)methylsulfonylmethyl]-N-(3-propan-2-yloxypropyl)furan-2-carboxamide] | > 300 |
| O=C(CSCCc1ccccn1)Nc1ccc(Br)cn1 | 17.7 |
| O=C(Cn1c2ccccc2c(=O)c2ccccc21)Nc1ccccc1F [N-(2-fluorophenyl)-2-(9-oxoacridin-10-yl)acetamide] | > 300 |
| CCn1c(SCC(=O)Nc2ccc(F)cc2)nnc1C1CC1 [2-[(5-cyclopropyl-4-ethyl-1,2,4-triazol-3-yl)sulfanyl]-N-(4-fluorophenyl)ethanamide] | > 300 |
| O=C(CN1CCN(S(=O)(=O)c2ccccc2)CC1)Nc1ccc([N+](=O)[O-])cc1 [2-[4-(benzenesulfonyl)-1-piperazinyl]-N-(4-nitrophenyl)acetamide] | > 300 |
| COc1ccc(N2CC(C(=O)Nc3cc(C)ccn3)CC2=O)cc1 (stereo unspecified) [1-(4-methoxyphenyl)-N-(4-methylpyridin-2-yl)-5-oxopyrrolidine-3-carboxamide] | 46.6 |
| CCC(C)Nc1nc(N)c([N+](=O)[O-])c(Nc2cc(OC)ccc2OC)n1 (stereo unspecified) [N2-butan-2-yl-N4-(2,5-dimethoxyphenyl)-5-nitro-pyrimidine-2,4,6-triamine] | 0.539 |
| COC(=O)c1nnn(-c2nonc2N)c1COc1ccc(C=O)cc1OC [methyl 1-(4-azanyl-1,2,5-oxadiazol-3-yl)-5-[(4-methanoyl-2-methoxy-phenoxy)methyl]-1,2,3-triazole-4-carboxylate] | 25.9 |
| O=c1cc(-c2ccccc2)oc2cc(O)cc(O)c12 [5,7-dihydroxy-2-phenyl-4H-chromen-4-one] | > 300 |
| COc1ccc(C=C2SC(Nc3ccccc3)=NC2=O)cc1 [5-(4-Methoxy-benzylidene)-2-phenylimino-thiazolidin-4-one] | > 300 |
| NS(=O)(=O)c1ccc(-c2ccc(/C=C3\NC(=S)NC3=O)o2)cc1 | 46.5 |
| O=C(Nc1ccccn1)C(=O)Nc1ccccn1 [N,N'-dipyridin-2-ylethanediamide] | > 300 |
| CCN(CC)Cc1c(O)ccc2occ(C(=O)c3ccc(OC)cc3)c12 [[4-(diethylaminomethyl)-5-oxidanyl-1-benzofuran-3-yl]-(4-methoxyphenyl)methanone] | > 300 |
| COC(=O)c1cc(C(=O)Nc2cc(C)ccn2)cc([N+](=O)[O-])c1 [methyl 3-{[(4-methyl-2-pyridinyl)amino]carbonyl}-5-nitrobenzoate] | > 300 |
| CCN(CC)Cc1c(C(=O)NN=Cc2cccc3ccccc23)nnn1-c1nonc1N [1-(4-amino-1,2,5-oxadiazol-3-yl)-5-(diethylaminomethyl)-N-(1-naphthalenylmethylideneamino)-4-triazolecarboxamide] | > 300 |
| O=c1cc(-c2ccccc2)c2ccc(O)cc2o1 [7-Hydroxy-4-phenyl-chromen-2-one] | 24.6 |
| COCCCNc1nc(N)c([N+](=O)[O-])c(NCC2CCCO2)n1 (stereo unspecified) | 3.93 |
| Nc1nonc1-n1nnc(C(=O)NN=Cc2ccccc2Cl)c1CN1CCOCC1 | 60.5 |
| CCOc1cc(C2Nc3ccccc3N=C3CC(C)(C)CC(=O)C32)ccc1O (stereo unspecified) [6-(3-ethoxy-4-hydroxyphenyl)-9,9-dimethyl-6,8,10,11-tetrahydro-5H-benzo[b][1,4]benzodiazepin-7-one] | > 300 |
| COc1ccc(/C=C(/NC(=O)c2ccccc2)C(=O)NN=Cc2ccncc2)c(OC)c1 [N-[(E)-1-(2,4-dimethoxyphenyl)-3-oxo-3-[2-(pyridin-4-ylmethylidene)hydrazinyl]prop-1-en-2-yl]benzamide] | > 300 |
| Cc1ccc(NC(=O)c2ccc(C)c(S(=O)(=O)N3CCCCC3)c2)nc1 [MLS001078236] | > 300 |
| O=[N+]([O-])c1ccccc1S(=O)(=O)Nc1ccc(S(=O)(=O)Nc2nccs2)cc1 | > 300 |

| SMILES | EC50 [µM] |
| --- | --- |
| O=C(NCCCN1CCCCC1)c1ccc2c(c1)NC(=O)c1ccccc1S2 [6-oxidanylidene-N-(3-piperidin-1-ylpropyl)-5H-benzo[b][1,4]benzothiazepine-3-carboxamide] | > 300 |
| COc1ccc2oc(C)c(C(=O)c3ccc(C)cc3)c2c1 [(5-methoxy-2-methyl-3-benzofuranyl)-(4-methylphenyl)methanone] | > 300 |
| O=C(CSc1nnc(CNC(=O)c2c(F)cccc2F)o1)NCc1ccc(F)cc1 | > 300 |
| O=C(O)c1ccccc1Nc1ccnc(Cl)n1 [2-[(2-chloro-4-pyrimidinyl)amino]benzoic acid] | > 300 |
| Cc1ccc(S(=O)(=O)CC(=O)c2cc3cccc(C)c3oc2=O)cc1 [8-methyl-3-[2-(4-methylphenyl)sulfonyl-1-oxoethyl]-1-benzopyran-2-one] | > 300 |
| COc1ccc(-c2cc(=O)oc3c(C)c(O)ccc23)cc1 [7-hydroxy-4-(4-methoxyphenyl)-8-methylchromen-2-one] | > 300 |
| COc1ccc2c(c1)-c1c(sn(-c3ccc(OC)c(OC)c3)c1=S)C(C)(C)N2 | > 300 |
| CCOC(=O)c1c(C)[nH]c(C)c1S(=O)(=O)N(C)CC(=O)Nc1cccc(F)c1 [ethyl 4-[[2-(3-fluoroanilino)-2-oxoethyl]-methylsulfamoyl]-2,5-dimethyl-1H-pyrrole-3-carboxylate] | > 300 |
| CCOC(=O)c1nnn(-c2nonc2N)c1COc1ccccc1 [ethyl 1-(4-amino-1,2,5-oxadiazol-3-yl)-5-(phenoxymethyl)triazole-4-carboxylate] | 23.8 |
| O=NCc1cn(-c2ccccc2)nc1-c1ccc2c(c1)OCCO2 [N-[[3-(2,3-dihydro-1,4-benzodioxin-6-yl)-1-phenylpyrazol-4-yl]methylidene]hydroxylamine] | 58.7 |
| CCCSCCCNC(=O)Cn1nc(CC)n2c(cc3c(OC)cccc32)c1=O | > 300 |
| Cn1ncnc2c(=O)n(C)c(=O)nc1-2 | 62.7 |
| CCc1n[nH]c(SCC(=O)Nc2ccc(Br)cn2)n1 [N-(5-bromanylpyridin-2-yl)-2-[(5-ethyl-1H-1,2,4-triazol-3-yl)sulfanyl]ethanamide] | 17.5 |
| CC(C)(C)C1CCc2onc(C(=O)Nc3ccc4c(c3)OCO4)c2C1 (stereo unspecified) [N-(1,3-benzodioxol-5-yl)-5-tert-butyl-4,5,6,7-tetrahydro-1,2-benzoxazole-3-carboxamide] | > 300 |
| COc1cccc2cc(C(=O)CS(=O)(=O)c3ccc(Cl)cc3)c(=O)oc12 [3-[2-(4-chlorophenyl)sulfonylethanoyl]-8-methoxy-chromen-2-one] | > 300 |
| O=C(NCc1ccccc1)c1ccc2nccnc2c1 [N-(phenylmethyl)-6-quinoxalinecarboxamide] | > 300 |
| COc1ccccc1N(CC(=O)N1CCc2ccccc2C1)S(C)(=O)=O [N-[2-(3,4-dihydro-1H-isoquinolin-2-yl)-2-oxoethyl]-N-(2-methoxyphenyl)methanesulfonamide] | > 300 |
| COc1cccc2cc(C(=O)NCc3ccc(C)cc3)c(=N)oc12 | > 300 |
| Nc1nc(Nc2cccc(F)c2)nc(NCCO)c1[N+](=O)[O-] [2-[[6-amino-2-(3-fluoroanilino)-5-nitro-4-pyrimidinyl]amino]ethanol] | 114 |
| C=CCn1cc(/C=C/c2cc[n+](C)cc2)c2ccccc21 [3-[(E)-2-(1-methylpyridin-1-ium-4-yl)ethenyl]-1-prop-2-enyl-indole;iodide] | > 300 |
| COCCNc1nc(N)c([N+](=O)[O-])c(NCCO)n1 [2-[[6-azanyl-2-(2-methoxyethylamino)-5-nitro-pyrimidin-4-yl]amino]ethanol] | 28.5 |
| COc1cc(/C=C(\C#N)C(=O)c2c[nH]c3ccccc23)cc(OC)c1O [(E)-3-(4-hydroxy-3,5-dimethoxyphenyl)-2-(1H-indole-3-carbonyl)prop-2-enenitrile] | 6.57 |
| COc1ccc(C=c2sc(=CC(=O)C(C)(C)C)[nH]c2=O)cc1O [2-(3,3-dimethyl-2-oxidanylidene-butylidene)-5-[(4-methoxy-3-oxidanyl-phenyl)methylidene]-1,3-thiazolidin-4-one] | 7.2 |

The remaining lines, values ahead:

| EC50 [µM] | SMILES |
| --- | --- |
| 2.01 | Nc1nc(NCCc2ccccc2)nc(NCCO)c1[N+](=O)[O-] [MLS001213372] |
| > 300 | O=C(O)c1cccc(-c2ccc(CN=Nc3ccc([N+](=O)[O-])cc3)o2)c1 [MLS000777078] |
| > 300 | Cc1cccc(C(=O)NCC(c2ccco2)N2CCc3ccccc32)c1 (stereo unspecified) [MLS001237444] |
| > 300 | CN1CCc2c(sc3c2c(=O)n(-c2ccccc2)c2nnc(SCc4ccc(Cl)cc4)n32)C1 [SMR000045323] |
| > 300 | O=c1cc(NCc2ccccc2)nc2n1CCCS2 [MLS000027636] |
| > 300 | Cc1cc2c(N3CCCCC3C)ncnc2s1 (stereo unspecified) [SMR000033135] |
| 1.71 | c1cc(CSc2nnc(-c3ccc4c(c3)OCO4)o2)ccn1 [SMR000006350] |
| > 300 | CCN1CCN(Cc2ccc(NC(=O)c3ccc(C)c(/C=C/c4cnc(Nc5cc(N6CCNCC6)nc(C)n5)cn4)c3)cc2C(F)(F)F)CC1 [SMR000718284] |
| > 300 | Nc1nnnn1/N=C/c1ccc(N2CCCCC2)c([N+](=O)[O-])c1 [SMR000174985] |
| 23.3 | COc1cc(C=C2SC(Nc3ccc(O)cc3)=NC2=O)ccc1O [MLS000778276] |
| > 300 | COCCn1c(SCC(=O)Nc2ccc(Cl)c(S(=O)(=O)N(C)C)c2)nc2ccccc21 [MLS000536225] |
| 0.632 | CCC(C)Nc1nc(N)c([N+](=O)[O-])c(Nc2ccccc2OC)n1 (stereo unspecified) [SMR000434817] |
| > 300 | COc1cc(C=C2SC(Nc3ccc(O)cc3)=NC2=O)cc(OC)c1OC [SMR000414809] |
| > 300 | COc1ccc(-c2nn(-c3ccccc3)cc2C=Nn2cnnc2)cc1OC [SMR000066046] |
| > 300 | CCOC(=O)C1CCN(c2cc(C)nc3ccc(OC)cc23)CC1 [MLS000772886] |
| 13 | COCCNc1nc(N)c([N+](=O)[O-])c(NCC2CCCO2)n1 (stereo unspecified) [MLS000588049] |
| > 300 | CCCCCCCCCCCCC(=O)CCCCC(=O)O [MLS001049131] |
| 0.358 | COc1ccc(C(=O)c2sc(Nc3ccccc3)nc2N)cc1OC [MLS001202046] |
| > 300 | Oc1ccc(CN=Nc2ncnc3nc[nH]c23)cc1 [SMR000320358] |
